In US20080070987A1, “META-XYLYLENEDIAMINE VANADATE SALTS” (priority 2006, published 2008):

Columns and labels:
Assay type in all cases: in vivo, rat
[1] = tested on: streptozotocin-induced diabetic rats; assay: Chronic subcutaneous (osmotic minipump) treatment of streptozotocin-induced diabetic rats, glycemia; conditions: for effect on glycemia, in words: streptozotocin (45 mg/kg) diabetic rats, 2.5 μmol/kg/day subcutaneous by osmotic minipumps, about two weeks
Description: FIG. 3 is a graphical illustration of hexaquis(benzylammonium) decavanadate chronic treatment effect on glycemia of diabetic rats by streptozotocin. In FIG. 3, [G] corresponds to the blood concentration of glucose (expressed in mg/dl) measured at different days of treatment (t/d). Diabetic rats were treated, by mini-osmotic pumps, with buffered solution (black diamonds), with hexaquis(benzylammonium) decavanadate (2.5 μmol/kg/day) (black squares) or with identical dose of sodium decavanadate (white circles).
The effect of chronic administration of hexaquis(benzylammonium) decavanadate on glycemia from diabetic rats was determined. Diabetes was induced in rats by intravenous administration of streptozotocin, which destroys the β-pancreatic cells that produce insulin.
(§1) Male Wistar rats weighting 180-220 g were purchased from Harlan (Interfauna Ibérica S.A., Spain). Diabetes was induced by a single intraperitoneal injection of a freshly prepared solution of streptozotocin (in some studies the dose was 45 mg/kg body weight and in some others 100 mg/kg body weight dissolved in 50 mM citrate buffer, pH 4.5). Only diabetic animals with glycemia above 300 mg/dl were used. The animals were housed in animal quarters at 22° C. with a 12 h light/12 h dark cycle and were fed ad libitum. All procedures used were approved by the animal ethical committee of the University of Barcelona, Spain. Male mice C57 BL/Ks bearing the db/db mutation (Jackson Laboratories, Bar Harbor, Me.) were purchased from Harlan France (Gannat, France). C57BL/6J male mice were assigned for 16 weeks to very high-fat diet containing (in kcal): 72% from fat, 28% from proteins and <1% from carbohydrates (Burcelin et al., 2002, Am. J. Physiol. Endocrinol. Metab 282: E834-E842).
(§2) Osmotic minipumps delivering B6V10 (2.5 μmol/kg body wt/day) or decavanadate (2.5 μmol/kg body wt/day) were implanted subcutaneously in diabetic rats anaesthetised by ketamine hydrochloride (95 mg/kg) and xylasine (10 mg/kg). […] Glycemia was measured on arterio-venous blood collected from the tail vessels at 09:00 am for two weeks, before the administration of vanadate. Insulin concentrations were determined before and after treatment. In another set of experiments, B6V10 was orally administered at a single dose of 5 μmol/kg/day during the first week and 10 μmol/kg/day during 2 additional weeks by gastric gavage. A control group received the corresponding decavanadate salt in the absence of benzylamine. At the end of the treatment, animals were sacrificed and the liver, fat pad, heart and lung were kept at −80° C. and the plasma at −20° C. until their use for in vitro analysis.
(§3) In glucose tolerance tests and in chronic treatments, circulating glucose concentrations were determined by a rapid glucose analyser (Accutrend® Sensor Comfort, Roche, Basel. Switzerland). Plasma insulin (IRI) concentration was determined by ELISA method using a kit obtained from Crystal Chem. Inc. (Downers Grove, Ill.). Plasma triglycerides (Biosystems, Barcelona, Spain) and NEFAS (Wako Chemicals, Neuss, Germany) were determined with standard […] methods.
Chronic in vivo efficacy of B6V10 was evaluated in streptozotocin-induced diabetic rats and in db/db mice. Streptozotocin-induced (45 mg/kg) diabetic rats were subcutaneously treated with hexaquis(benzylammonium) decavanadate (2.5 μmol/kg) (B6V10, solid squares, FIG. 8A) or with decavanadate (2.5 μmol/kg) (V10, open circles, FIG. 8A) delivered subcutaneously by osmotic minipumps implanted in the dorsal region. Diabetic rats were also sham-operated (untreated, solid diamonds, FIG. 8A). […] These experiments were repeated using an oral administration protocol. Streptozotocin-induced (45 mg/kg) diabetic rats were orally treated with hexaquis(benzylammonium) decavanadate (5 μmol/kg from day 0 to day 7 and 10 μmol/kg/day from day 7 to day 17) (B6V10, solid squares, FIG. 8B) or received decavanadate (10 μmol/kg) (V10, open circles, FIG. 8B). […]

[2] = tested on: streptozotocin-induced diabetic rats; conditions: for effect on glycemia / circulating glucose, in words: 2.5 μmol/kg subcutaneous minipumps
Description: as §1, §2, §3
To this end, rats were made diabetic by the injection of a large dose of streptozotocin (100 mg/kg) that eliminates β-pancreatic insulin content. […] These streptozotocin-induced diabetic rats were subcutaneously treated with B6V10 (2.5 μmol/kg) (solid squares, FIG. 9A) delivered by osmotic minipumps or left untreated (solid circles, FIG. 9A). Sham-operated nondiabetic rats were also untreated (solid triangles, FIG. 9A).
The concentration of circulating glucose under these conditions was also assayed. After 28 days of treating diabetic rats with hexaquis(benzylammonium) decavanadate (2.5 μmol/kg) (wide striped bars, FIG. 9B), or with decavanadate (close striped bars, FIG. 9B) delivered by osmotic minipumps, plasma insulin and glucose were measured. Untreated diabetic (solid bars, FIG. 9B) or nondiabetic rats (open bars, FIG. 9B) were similarly assayed as controls.

[3] = tested on: streptozotocin-induced diabetic rats; assay: Chronic oral treatment of streptozotocin-induced diabetic rats, glycemia; conditions: for glycemia: oral, after the dosage increase to 10 μmol/kg/day; for effect on glycemia over the whole oral treatment, in words: streptozotocin (45 mg/kg) diabetic rats, daily oral administration for 17 days
Description: FIG. 4 is a graphical illustration of the chronic and oral treatment with hexaquis(benzylammonium) decavanadate on glycemia of diabetic rats by estreptozotocine. In FIG. 4, [G] corresponds to the blood concentration of glucose (expressed in mg/dl) measured at different days of treatment (t/d). Diabetic rats were treated with a single daily oral dose of hexaquis(benzylammonium) decavanadate (5 μmol/kg/day between day 0 and day 7 marked with an arrow, and 10 μmol/kg/day from 7 days of treatment) (black squares) or with identical dose of sodium decavanadate (black diamonds). Glycemia in non-diabetic rats is also represented in the figure (black triangles).
Diabetes was induced in rats by intravenous administration of streptozotocin, and subsequently, a hexaquis(benzylammonium) decavanadate or sodium decavanadate unique dose was administered to the rats. […] After seven days of treatment, the dose was increased at 10 μmol/kg/day which was maintained for an additional ten days. […] Thus, glycemia in sodium decavanadate treated rats was approximately 450 mg/dl and glycemia of hexaquis(benzylammonium) decavanadate treated rats was approximately 250 mg/dl.
as §1, §2, §3
Chronic in vivo efficacy of B6V10 was evaluated in streptozotocin-induced diabetic rats and in db/db mice. Streptozotocin-induced (45 mg/kg) diabetic rats were subcutaneously treated with hexaquis(benzylammonium) decavanadate (2.5 μmol/kg) (B6V10, solid squares, FIG. 8A) or with decavanadate (2.5 μmol/kg) (V10, open circles, FIG. 8A) delivered subcutaneously by osmotic minipumps implanted in the dorsal region. Diabetic rats were also sham-operated (untreated, solid diamonds, FIG. 8A). […]

[4] = streptozotocin 100 mg/kg, 2.5 μmol/kg minipumps, 28 days

Substance | time at which reduction of hyperglycemia was detected ([1]; 2.5 μmol/kg/day subcutaneous minipumps) | glucose transport in adipocytes isolated from treated rats ([1]; adipocytes isolated at fourteen days of treatment) | effect on glycemia, in words [1] | effect on glycemia, in words ([1]; listed as hexaquis(benzylammonium) decavanadate) | effect on body weight or organ weights ([2]; rat, in vivo) | plasma glucose after 28 days of treatment [2, 4] | plasma insulin after 28 days of treatment [2, 4] | effect on glycemia / circulating glucose, in words ([2]; streptozotocin 100 mg/kg) | time at which decrease of hyperglycemia was detected ([3]; oral 5 μmol/kg/day) | effect on hyperglycemia, in words ([3]; oral 5 μmol/kg/day for seven days) | effect of the dosage increase on glycemia, in words ([3]; oral 10 μmol/kg/day for an additional ten days after seven days at 5 μmol/kg/day) | glycemia [3] | effect on glycemia over the whole oral treatment, in words [3] | effect on glycemia, in words ([1]; listed as sodium decavanadate) | effect on glycemia over the whole oral treatment, in words ([3]; listed as sodium decavanadate)
hexaquis(benzylammonium) decavanadate [Example B6V10] | after only four days of treatment | increased glucose transport under basal conditions equivalent to that seen in the presence of insulin | significant correction of hyperglycemia | rapid reduction of the hyperglycemia | did not affect body weight or organ weights | plasma glucose was reduced | without any observable change in the amount of insulin | reducing glycemia | after but two days of treatment | moderate decrease of hyperglycemia | additional decrease in glycemia | approximately 250 mg/dl | significant correction of hyperglycemia |  | 
sodium decavanadate [Example V10, reference compound] |  |  | did not alter glycemia |  |  |  |  | did not show any change in circulating glucose |  |  |  | approximately 450 mg/dl | did not alter glycemia | did not modify substantially its glycemia | not affected substantially
